Data on twelve compounds can be found in PMC11125359 (Pharmaceuticals, 2024).

In series [1] the target is bovine serum albumin (BSA) (Bos taurus, UniProt P02769). To be noted: equal concentrations (1000 µg/mL); mean ± SE.
Series [2] in a line: ABTS radical scavenging assay. To be noted: equal concentrations (1000 µg/mL); mean ± SE.
Protocol: (§1) All in vitro biological activities were assessed in the tested compounds at equal concentrations (1000 µg/mL). All assays were carried out in triplicate.
In vitro biological activities
(§2) The total antioxidant capacity (TAC) was determined by analyzing the green phosphate/Mo5+ complex at a wavelength (λ) of 695 nm, following the procedure described by Prieto
(§3) et al. Samples (at each concentration) were mixed with a reagent solution containing 0.3 N sulfuric
(§4) acid, 28 mM sodium phosphate, and 4 mM ammonium molybdate. Methanol (80%) was used in place
(§5) of the sample for the blank. The tubes were sealed and incubated in a boiling water bath for 90
(§6) minutes. After cooling to room temperature, the absorbance was measured at 695 nm against the
(§7) blank. Ascorbic acid was used at the same concentrations as a standard. The antioxidant capacity was
(§8) expressed as mg gallic acid equivalent per gram weight.
(§9) The iron reducing power was determined as µg/mL using the method proposed by Oyaizu
(§10) In brief, 1ml of the tested sample (at each concentration) was combined with 1mL of 200mM
(§11) sodium phosphate buffer (pH 6.6) and 1mL of 1% potassium ferricyanide. The mixture was then
(§12) incubated at 50°C for 20 minutes, followed by the addition of 1mL of trichloroacetic acid (10%). After
(§13) centrifugation at 2000rpm for 10 minutes, the upper layer solution (2.5 mL) was mixed with 2.5 mL of double deionized water and 1mL of fresh ferric chloride (0.1%). The absorbance was measured at
(§14) 700nm against a blank prepared without the sample. Ascorbic acid was used at the same
(§15) concentrations as a standard. A high absorbance at 700nm indicates a higher reducing power in the
(§16) The 1,1-Diphenyl-2-picryl-hydrazyl (DPPH) radical scavenging activities were evaluated using the method described by Rahman et al. An antioxidant substance capable of donating a
(§17) hydrogen atom to a solution containing DPPH- can reduce the stable free radical, causing the solution
(§18) to change color from violet to pale yellow. The remaining DPPH- radical was quantified by
(§19) nm using a spectroscopic method. Two milliliters of a DPPH solution (100 µM) in ethanol were mixed
(§20) with 2 mL of the sample (at each concentration). The reaction mixture for each concentration was
(§21) thoroughly vortexed and then incubated in the dark at room temperature for 30 minutes. The
(§22) absorbance was then measured spectrophotometrically at 518 nm against a blank (ethanol). For the
(§23) control, 2 mL of ethanol was added instead of the sample and run simultaneously with the test.
(§24) Ascorbic acid was used at the same concentrations as a positive control. Percent inhibition of the
(§25) DPPH free radical was calculated. The median inhibitory concentration (IC 50) for each tested
(§26) The procedure for the 2,2'-azinobis-(3-ethylbenzothiazoline-6-sulfonic acid) (ABTS) assay
(§27) potassium persulfate solution (2.4 mM). The working solution was prepared by mixing the two stock
(§28) solutions in equal quantities and allowing them to react at room temperature in a dark place for 14
(§29) hours. The solution was then diluted by mixing 1 mL of ABTS solution with 60 mL of methanol to
(§30) was prepared for each assay. The tested samples (at each concentration) were allowed to react with 1
(§31) mL of the ABTS solution, and the absorbance was taken at 734 nm after 7 minutes using a
(§32) spectrophotometer. The ABTS scavenging capacities of the samples were compared with that of
(§33) ascorbic acid (at the same concentrations).
Series [3] can be described thus: Total antioxidant capacity (TAC), phosphomolybdenum method. To be noted: equal concentrations (1000 µg/mL); mean ± SE, three replicates.
Protocol: as §1
In vitro biological activities
as §2, §3, §4, §5, §6, §7, §8, §9, §10, §11, §12, §13, §14, §15, §16, §17, §18, §19, §20, §21, §22, §23, §24, §25, §26, §27, §28, §29, §30, §31, §32, §33
Series [4] in a line: Iron-reducing power (IRP). Conditions: equal concentrations (1000 µg/mL); mean ± SE, three replicates.
Protocol: as §1
In vitro biological activities
as §2, §3, §4, §5, §6, §7, §8, §9, §10, §11, §12, §13, §14, §15, §16, §17, §18, §19, §20, §21, §22, §23, §24, §25, §26, §27, §28, §29, §30, §31, §32, §33
Another series has as its system α-amylase. Briefly: α-Amylase inhibition (anti-diabetic). It is filed as biochemical. To be noted: equal concentrations (1000 µg/mL); mean ± SE.
Series [5] has as its system proteinase enzyme (trypsin). Briefly: Proteinase enzyme inhibition (anti-inflammatory). It counts as biochemical. Conditions: equal concentrations (1000 µg/mL); mean ± SE.
Series [6] addresses acetylcholinesterase (AChE) (Homo sapiens, UniProt P22303). Briefly: biochemical. Conditions: same concentration (1000 µg/mL); mean ± SE.
A short description of series [7]: DPPH radical-scavenging activity. Conditions: read-out: DPPH (IC50); mean ± SE, three replicates. In general terms: The DPPH test is a chemical assay of radical scavenging.
Protocol: In vitro biological activities
as §16, §17, §18, §19, §20, §21, §22, §23, §24, §25
Another series relates to α-glucosidase. Kind of series: α-Glucosidase inhibition (anti-diabetic). It counts as biochemical. To be noted: equal concentrations (1000 µg/mL); mean ± SE.

As usually defined, the inhibition is the share of the control response that was lost under treatment. Read a high inhibition as a response far below the control. The IC50 is the point on the concentration scale where inhibition reaches its midpoint.

acetylcholinesterase (AChE), sequence (P22303 32-614, species assumed): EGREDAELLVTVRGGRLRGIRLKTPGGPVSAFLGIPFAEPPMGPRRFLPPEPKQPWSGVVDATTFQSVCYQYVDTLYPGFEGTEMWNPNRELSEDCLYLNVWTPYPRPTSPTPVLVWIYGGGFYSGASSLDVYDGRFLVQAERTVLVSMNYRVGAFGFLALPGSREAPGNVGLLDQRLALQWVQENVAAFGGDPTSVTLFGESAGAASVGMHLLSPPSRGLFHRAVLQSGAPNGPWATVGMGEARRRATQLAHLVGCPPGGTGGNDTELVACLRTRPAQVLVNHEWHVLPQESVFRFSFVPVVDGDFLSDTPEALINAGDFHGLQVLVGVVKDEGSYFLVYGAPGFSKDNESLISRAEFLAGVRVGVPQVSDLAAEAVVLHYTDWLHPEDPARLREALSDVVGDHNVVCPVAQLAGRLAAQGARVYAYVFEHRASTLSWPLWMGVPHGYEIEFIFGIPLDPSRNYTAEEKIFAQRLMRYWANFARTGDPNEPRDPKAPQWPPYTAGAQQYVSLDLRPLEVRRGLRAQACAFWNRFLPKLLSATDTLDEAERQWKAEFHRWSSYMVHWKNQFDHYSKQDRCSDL
bovine serum albumin (BSA), sequence (P02769 25-607): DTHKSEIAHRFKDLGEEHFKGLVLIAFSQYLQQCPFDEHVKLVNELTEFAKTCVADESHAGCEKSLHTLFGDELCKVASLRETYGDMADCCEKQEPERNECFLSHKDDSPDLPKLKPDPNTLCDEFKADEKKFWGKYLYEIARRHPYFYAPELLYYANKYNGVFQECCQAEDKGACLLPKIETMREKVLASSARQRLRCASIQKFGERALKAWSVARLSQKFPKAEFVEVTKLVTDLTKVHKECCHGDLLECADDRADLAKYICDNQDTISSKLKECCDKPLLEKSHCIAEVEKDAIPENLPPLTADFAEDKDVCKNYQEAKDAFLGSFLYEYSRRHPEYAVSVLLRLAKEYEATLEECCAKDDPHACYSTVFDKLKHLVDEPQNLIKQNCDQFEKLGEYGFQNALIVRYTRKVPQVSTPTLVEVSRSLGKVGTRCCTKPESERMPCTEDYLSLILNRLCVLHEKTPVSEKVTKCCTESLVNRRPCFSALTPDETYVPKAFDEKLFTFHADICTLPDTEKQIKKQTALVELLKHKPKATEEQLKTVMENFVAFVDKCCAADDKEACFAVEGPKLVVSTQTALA

`Cc1ccc(NC(=O)c2c(Nc3ccccc3)n[nH]c2/N=C/c2ccc(N3CCCCC3)cc2)cc1` [5b]: the “Inhibition (%) Protein Denaturation” value in [1] was 7.83 ± 0.01%. In addition, the “ABTS (%) inhibition” value in series [2] was determined as 22.03 ± 0.01%. Further, the “Total Antioxidant Capacity (TAC)” value in series [3] came to 15.26 ± 0.06 mg Gallic Acid/g. For the same compound, the “Iron-Reducing Power (IRP)” value in series [4] is listed as 10.01 ± 0.02 µg/mL. In addition, the “Inhibition (%) α-Amylase” value with α-amylase is recorded as 9.12 ± 0.01%. Also, the “Inhibition (%) Proteinase” value in series [5] was 6.81 ± 0.01%. In series [6], the inhibition at 1000 µg/mL was determined as 12.28 ± 0.01%. Moreover, in series [7], the IC50 worked out at 59.8 ± 0.03 µM. In addition, the “Inhibition (%) α-Glucosidase” value in the series on α-glucosidase came to 7.85 ± 0.01%.

Regarding `O=C(Nc1ccc(Cl)cc1)c1c(Nc2ccccc2)n[nH]c1/N=C/c1ccc(N2CCCCC2)cc1` [5c], in series [1], the “Inhibition (%) Protein Denaturation” value amounted to 15.41 ± 0.02%. In addition, the “ABTS (%) inhibition” value in series [2] was found to be 43.34 ± 0.03%. Further, the “Total Antioxidant Capacity (TAC)” value in series [3] was determined as 30.01 ± 0.11 mg Gallic Acid/g. In addition, the “Iron-Reducing Power (IRP)” value in series [4] was determined as 19.68 ± 0.04 µg/mL. In addition, in the series with α-amylase, the “Inhibition (%) α-Amylase” value is recorded as 17.94 ± 0.03%. Further, the “Inhibition (%) Proteinase” value in series [5] was 13.40 ± 0.02%. This compound also displayed an inhibition at 1000 µg/mL in [6] of 24.15 ± 0.01%. Further, the IC50 in [7] was 42.86 ± 0.02 µM. For the same compound, the “Inhibition (%) α-Glucosidase” value with α-glucosidase is given as 15.43 ± 0.03%.

Turning to `Cc1nn(-c2ccccc2)c(Cl)c1C=Nc1[nH]nc(Nc2ccccc2)c1C(=O)Nc1ccccc1` [6a], the “Inhibition (%) Protein Denaturation” value in [1] came to 15.33 ± 0.02%. In series [2], the “ABTS (%) inhibition” value came to 43.12 ± 0.03%. Further, in series [3], the “Total Antioxidant Capacity (TAC)” value is reported as 29.86 ± 0.11 mg Gallic Acid/g. Also, in series [4], the “Iron-Reducing Power (IRP)” value is given as 19.58 ± 0.04 µg/mL. For the same compound, the “Inhibition (%) α-Amylase” value with α-amylase is 17.85 ± 0.03%. The “Inhibition (%) Proteinase” value in [5] was found to be 13.33 ± 0.02%. In addition, in [6], 1000 µg/mL produced 24.03 ± 0.01% inhibition. Besides, the IC50 in series [7] stood at 43.35 ± 0.02 µM. The “Inhibition (%) α-Glucosidase” value in the series on α-glucosidase is listed as 15.35 ± 0.03%.

`Cc1ccc(NC(=O)c2c(Nc3ccccc3)n[nH]c2N=Cc2c(C)nn(-c3ccccc3)c2Cl)cc1` [6b]: the “Inhibition (%) Protein Denaturation” value in series [1] is reported as 17.94 ± 0.02%. For the same compound, in series [2], the “ABTS (%) inhibition” value is recorded as 50.45 ± 0.03%. Moreover, the “Total Antioxidant Capacity (TAC)” value in series [3] is 34.93 ± 0.13 mg Gallic Acid/g. Besides, in [4], the “Iron-Reducing Power (IRP)” value was 22.91 ± 0.04 µg/mL. The “Inhibition (%) α-Amylase” value with α-amylase turned out to be 20.89 ± 0.03%. In series [5], the “Inhibition (%) Proteinase” value amounted to 15.60 ± 0.02%. The compound also had an inhibition at 1000 µg/mL in [6] of 28.11 ± 0.02%. In addition, in [7], the IC50 was 36.02 ± 0.02 µM. Moreover, the “Inhibition (%) α-Glucosidase” value in the series on α-glucosidase worked out at 17.96 ± 0.03%.

For `Cc1nn(-c2ccccc2)c(Cl)c1C=Nc1[nH]nc(Nc2ccccc2)c1C(=O)Nc1ccc(Cl)cc1` [6c], in series [1], the “Inhibition (%) Protein Denaturation” value was 17.97 ± 0.02%. Besides, the “ABTS (%) inhibition” value in series [2] is 50.54 ± 0.03%. Also, the “Total Antioxidant Capacity (TAC)” value in series [3] was found to be 34.99 ± 0.13 mg Gallic Acid/g. The “Iron-Reducing Power (IRP)” value in series [4] was found to be 22.95 ± 0.05 µg/mL. Moreover, the “Inhibition (%) α-Amylase” value with α-amylase amounted to 20.92 ± 0.03%. In addition, in series [5], the “Inhibition (%) Proteinase” value is listed as 15.62 ± 0.02%. Moreover, testing at 1000 µg/mL in [6] gave an inhibition of 28.16 ± 0.02%. Moreover, the IC50 in series [7] was found to be 34.58 ± 0.02 µM. Moreover, the “Inhibition (%) α-Glucosidase” value in the series on α-glucosidase is reported as 17.99 ± 0.03%.

Turning to `COc1ccc(Nc2n[nH]c(N=Cc3c(C)nn(-c4ccccc4)c3Cl)c2C(=O)Nc2ccccc2)cc1` [6d], the “Inhibition (%) Protein Denaturation” value in series [1] stood at 15.62 ± 0.02%. Further, in series [2], the “ABTS (%) inhibition” value was 43.93 ± 0.03%. Further, the “Total Antioxidant Capacity (TAC)” value in [3] came out at 30.42 ± 0.11 mg Gallic Acid/g. For the same compound, the “Iron-Reducing Power (IRP)” value in series [4] worked out at 19.95 ± 0.04 µg/mL. Moreover, the “Inhibition (%) α-Amylase” value in the series with α-amylase worked out at 18.19 ± 0.03%. Also, the “Inhibition (%) Proteinase” value in series [5] was 13.58 ± 0.02%. In series [6], this compound showed an inhibition at 1000 µg/mL of 24.48 ± 0.01%. Besides, the half-maximal inhibitory concentration (IC50) in series [7] is 40.11 ± 0.02 µM. Moreover, the “Inhibition (%) α-Glucosidase” value with α-glucosidase amounted to 15.64 ± 0.03%.

Consider `COc1ccc(Nc2n[nH]c(N=Cc3c(C)nn(-c4ccccc4)c3Cl)c2C(=O)Nc2ccc(C)cc2)cc1` [6e], for which the “Inhibition (%) Protein Denaturation” value in series [1] is 15.67 ± 0.02%. The “ABTS (%) inhibition” value in series [2] came out at 44.08 ± 0.03%. In series [3], the “Total Antioxidant Capacity (TAC)” value amounted to 30.52 ± 0.11 mg Gallic Acid/g. Also, in series [4], the “Iron-Reducing Power (IRP)” value came out at 20.02 ± 0.04 µg/mL. Also, the “Inhibition (%) α-Amylase” value in the series on α-amylase amounted to 18.25 ± 0.03%. For the same compound, the “Inhibition (%) Proteinase” value in [5] was 13.63 ± 0.02%. Moreover, the inhibition at 1000 µg/mL in series [6] was found to be 24.56 ± 0.01%. The IC50 in series [7] was determined as 38.94 ± 0.02 µM. Further, the “Inhibition (%) α-Glucosidase” value in the series with α-glucosidase is listed as 15.69 ± 0.03%.

With `COc1ccc(Nc2n[nH]c(N=Cc3c(C)nn(-c4ccccc4)c3Cl)c2C(=O)Nc2ccc(Cl)cc2)cc1` [6f], in series [1], the “Inhibition (%) Protein Denaturation” value was 15.64 ± 0.02%. Further, the “ABTS (%) inhibition” value in series [2] is on record as 44.00 ± 0.03%. The “Total Antioxidant Capacity (TAC)” value in series [3] was found to be 30.47 ± 0.11 mg Gallic Acid/g. Moreover, the “Iron-Reducing Power (IRP)” value in series [4] was 19.98 ± 0.04 µg/mL. Besides, the “Inhibition (%) α-Amylase” value in the series on α-amylase is 18.22 ± 0.03%. For the same compound, the “Inhibition (%) Proteinase” value in series [5] turned out to be 13.60 ± 0.02%. The compound further registered an inhibition at 1000 µg/mL in series [6] of 24.52 ± 0.01%. In addition, the IC50 in series [7] stood at 37.6 ± 0.02 µM. In addition, the “Inhibition (%) α-Glucosidase” value in the series on α-glucosidase stood at 15.67 ± 0.03%.

Consider `Cc1ccc(NC(=O)c2c(Nc3ccccc3)n[nH]c2N=Cc2c(C)n(C)n(-c3ccccc3)c2=O)cc1` [7b], for which the “Inhibition (%) Protein Denaturation” value in [1] is 15.36 ± 0.02%. Besides, the “ABTS (%) inhibition” value in [2] was 43.19 ± 0.03%. Also, the “Total Antioxidant Capacity (TAC)” value in series [3] came to 29.91 ± 0.11 mg Gallic Acid/g. The “Iron-Reducing Power (IRP)” value in series [4] is reported as 19.62 ± 0.04 µg/mL. Also, the “Inhibition (%) α-Amylase” value in the series on α-amylase is on record as 17.88 ± 0.03%. In addition, in [5], the “Inhibition (%) Proteinase” value is 13.35 ± 0.02%. This compound also returned an inhibition at 1000 µg/mL in series [6] of 24.07 ± 0.01%. Also, the IC50 in [7] amounted to 42.45 ± 0.02 µM. The “Inhibition (%) α-Glucosidase” value in the series on α-glucosidase was 15.38 ± 0.03%.

`Cc1c(C=Nc2[nH]nc(Nc3ccccc3)c2C(=O)Nc2ccc(Cl)cc2)c(=O)n(-c2ccccc2)n1C` [7c]: in [1], the “Inhibition (%) Protein Denaturation” value came out at 15.38 ± 0.02%. Further, the “ABTS (%) inhibition” value in series [2] was determined as 43.27 ± 0.03%. For the same compound, in series [3], the “Total Antioxidant Capacity (TAC)” value is 29.96 ± 0.11 mg Gallic Acid/g. Besides, the “Iron-Reducing Power (IRP)” value in series [4] amounted to 19.65 ± 0.04 µg/mL. Moreover, in the series with α-amylase, the “Inhibition (%) α-Amylase” value is reported as 17.91 ± 0.03%. Also, the “Inhibition (%) Proteinase” value in [5] is recorded as 13.38 ± 0.02%. Further, the inhibition at 1000 µg/mL in series [6] was 24.11 ± 0.01%. Also, the 50% inhibitory concentration (IC50) in series [7] turned out to be 40.72 ± 0.02 µM. Moreover, the “Inhibition (%) α-Glucosidase” value in the series with α-glucosidase was found to be 15.41 ± 0.03%.

For `C[C@H]1O[C@H](O[C@H]2[C@H](O)[C@@H](O)[C@@H](O[C@H]3[C@H](O)[C@@H](O)C(O)O[C@@H]3CO)O[C@@H]2CO)[C@H](O)[C@@H](O)[C@@H]1N[C@H]1C=C(CO)[C@@H](O)[C@H](O)[C@H]1O` (stereo partly drawn) [Acarbose, reference compound], the “Inhibition (%) α-Amylase” value in the series with α-amylase came to 76.58 ± 0.01%. For the same compound, the “Inhibition (%) α-Glucosidase” value in the series with α-glucosidase was 53.94 ± 0.01%.

With `O=C1O[C@H]([C@@H](O)CO)C(O)=C1O` [Ascorbic Acid, reference compound], the “ABTS (%) inhibition” value in series [2] turned out to be 41.25 ± 0.01%. Moreover, the “Total Antioxidant Capacity (TAC)” value in [3] stood at 79.10 ± 0.11 mg Gallic Acid/g. In addition, in [4], the “Iron-Reducing Power (IRP)” value worked out at 71.85 ± 0.05 µg/mL. In addition, the IC50 in [7] was determined as 29.3 ± 0.01 µM.
